Entries after “also recorded” stand apart in the source; their conditions may differ. Read-outs that look alike come from different tables or passages of the source.
Legend:
HBV = HBV antigen assay: LHBs and MHBs secreted by HepG2.2.15 cells, immunoblot; type: cell-based, Hepatitis B virus; conditions: 7 days; for inhibition of secretion of viral glycoproteins MHBs and LHBs (in words): 50 uM, FIG. 6A
Procedure: MHBs and LHBs are HBV envelope proteins that are sensitive to glucosidase inhibition and inhibition of these important viral glycoproteins serves as a surrogate for HBV growth. […] To assess the activity of this compound in the context of viral replication, HepG2 2.2.15 cells were incubated with the indicated DNJ derived compound. HepG 2.2.15 cells secrete readily detectable amounts of MHBs and LHBs into the culture medium. After 7 days of incubation, the amount of HBV M and L in the culture medium was determined by western blot. […] The nature of the selective antiviral activity is not known, but may be due to cell specific activity since HBV is studied in human liver derived hepatoblastoma HepG2 cells and BVDV and WNV were studied in MDBK and BHK cells, respectively.
HBV antigen assay: Antiviral activity against HBV was determined using HepG2.2.15 cells, which contain a dimer of the HBV genome and express all viral gene products, including envelope glycoproteins (Sells, Chen, and Acs, 1987). Briefly, HepG2.2.15 cells were seeded in 24 well trays, and allowed to grow to confluence prior to addition of drug, as described previously (Simsek et al., 2005). After seven days of treatment, supernatants were harvested and assayed for the presence of the Large Hepatitis B (LHBs) and middle Hepatitis B (MHBs) glycoproteins by electrophoresis through 12% polyacrylamide gels and immunoblotting with a polyclonal antibody that recognizes the pre-S2 region of the LHBs and MHBs proteins (Research Diagnostics Inc., Flanders, N.J.) as described (Simsek et al., 2005). Quantitation was performed using AlphaEase software (Alphalnnotech).

DV serotype 2 = assay: DV yield reduction assay in BHK cells; type: cell-based, Dengue virus (DV) serotype 2; conditions: for selectivity ratio at 72 h: hamster, read-out: SI (Selective Index, CC50/IC50)
Procedure: In the DV infection assay, a serotype 2 DV was used to infect BHK cells in the presence or absence of testing compounds and viruses produced after 72 hours were titered in a manner similar to the WNV assay. In this experiment, N-butylcyclohexyl-DNJ (SP169), N-pentyl(1-hydroxylcyclohexyl)-DNJ (OSL-95II), […] and N-propylcyclohexyl-DNJ (SP173) were compared with NNDNJ (Wu et al., 2002) and castanospermine. […] All compounds had no toxicity at the highest concentrations used in this experiment (FIG. 5B, Table 1).

BVDV = BVDV single cycle virus yield reduction assay in MDBK cells; type: cell-based, Bovine Viral Diarrhea virus (NADL strain)
Procedure: BVDV antiviral and plaque assays. To evaluate antiviral activity against BVDV, a single cycle virus yield reduction assay was performed in the presence of various concentrations of the test compounds. Specifically, 2×10^5 MDBK cells/well were plated in 24 well plates. Twenty-four hours later, the cells were infected with BVDV at a multiplicity of infection (moi) of 0.5 PFU/cell in 100 ul complete media. After adsorption for 1 h at 37° C., the inoculum was removed, and cells were washed with media before media containing vehicle or various concentrations of each compound was added. At 22 hour post infection, both cell and media were collected and freeze-thawed three times before the virus was titered. For BVDV virus titer determination, 10^−2, 10^−3, and 10^−4 dilutions of virus were inoculated onto MDBK cells as described previously (Gu et al., 2000; Jordan et al., 2002). After absorption and washing the cells were overlaid with medium containing methylcellulose or soft agar and incubated at 37° C. for 3 days or until plaques were visible. Plaques were counted directly under the microscope or after staining with crystal violet in 70% methanol for 15 min.
(§1) The anti-viral activity of this family of compounds against BVDV was then determined by a single cycle viral yield reduction assay in Madin Darby Bovine Kidney (MDBK) cells where the compounds are incubated with cells for 20 hours during the period of infection. Yields of virus were then determined by plaque assay on new MDBK cell monolayers. Compound toxicity was measured by MTT assay and the CC50 determined as the concentration of compound producing 50% reduction in absorption readings. […] This is consistent with previous findings in which oxygenation and methoxylation of side chains emanating from the ring nitrogen were less toxic in tissue culture and in animals than straight chain alkylated DNJs (Mehta et al., 2002b).

WNV = WNV yield reduction assay in BHK cells; conditions: for selectivity ratio at 48 h: hamster
Procedure: Cells and viruses. BVDV-free MDBK cells (CCL 22) were obtained from the American Type Culture Collection and propagated in DMEM/F12 essential medium supplemented with penicillin (500 U/ml), streptomycin (500 U/ml), and 10% heat inactivated horse serum (Invitrogen). Cells were maintained in a humidified incubator at 37° C. with 5% CO2. BVDV (NADL strain) was obtained from Dr. Rubin Donis (Univ. of Nebraska-Lincoln). For infections, virus inoculum was added in complete medium and adsorbed for 1 h at 37° C., the inoculum was then removed, the cells washed once with medium and fresh medium containing compounds added. Virus stocks were prepared by freeze-thawing the infected cells and culture supernatant three times followed by centrifugation at 1,000 g for 5 min. Stock titers were determined, and stocks were aliquoted and stored at −80° C. WNV was obtained from a cDNA clone of a human 2002 isolate from Texas (Rossi et al., 2005); virus obtained from BHK cells electroporated with the in vitro synthesized RNA from this cDNA clone was passaged in Vero cells before use in antiviral assays. Dengue virus (DV) serotype 2 was a New Guinea C virus that had been passaged 28 times in suckling mouse brain, twice in Vero cells, and once in C6/36 mosquito cells.
WNV and DV Yield Reduction assay: Antiviral activity against WNV was evaluated in a yield reduction assay. Briefly, BHK cells were plated in 96-well plates at a concentration of 2.5×10^4 cells/well. 24 hours after plating, the cells were infected with WNV at an MOI of 0.05. After 1 hour the inoculum was aspirated and the cells re-fed with fresh DMEM containing dilutions of the test compounds. Plates were then incubated at 37° C. for 48 hours, the supernatant collected and the WNV produced titered. For virus titration, Vero cells were plated in 96-well plates at 8.0×10^3 cells/well and incubated overnight. The Vero cell monolayers were then infected for 1 hour with various dilutions of the WNV supernatant, overlaid with media containing 0.6% tragacanth (ICN, CA) and incubated at 37° C. for 24-30 hours. The culture media was then aspirated; the plate was rinsed, air-dried, and fixed with 50 ul/well acetone/methanol (50:50). Viral foci were detected for enumeration by immunostaining as described previously (Rossi et al., 2005). For antiviral testing against DV, DV serotype 2, drug incubations and titrations were performed essentially as described for WNV, except that the virus was harvested from drug-treated cultures 72 hrs after infection, and foci were stained using hybridoma culture fluid harvested from monoclonal antibody-producing hybridoma clone D1-4G2 (Gentry et al., 1982) following 3 days of incubation on Vero cells under the tragacanth overlay.
For this purpose, BHK cells were infected with WNV at an moi of 0.05, and incubated in either the absence or presence of various concentrations of N-butylcyclohexyl-DNJ (SP169) and N-propylcyclohexyl-DNJ (SP173). After three days, the amount of progeny virus produced was determined by plaque assays on indicator Vero cells.

BHK cells = assay: MTT compound toxicity assay on BHK cells; type: cell-based; conditions: for CC50: WNV (BHK), MTT, 50% reduction relative to DMSO; for concentration without any detectable cell toxicity (highest concentration tested): BHK cells, measured in parallel to WNV assay, data not shown
Procedure: (§2) Compound toxicity assay. Compound cytotoxicity was assessed by using an MTT based toxicity assay kit (Sigma, St. Louis, Mo.) as described elsewhere (Gu et al., 2006). Briefly, cells cultured under conditions identical to those used in the viral assay were incubated with various concentrations of the compound for 72 hours. MTT was added to the media to a final concentration of 0.5 mg/ml and was incubated for 3 hours at 37 C. After the culture media was removed, formazan crystals was dissolved by adding 150 ul of solubilization solution (10% Triton X-100, 0.1 N HCl in anhydrous isopropanol) for 15-30 minutes. The absorbance of the dissolved formazan was measured spectrophotometrically at 570 nm with absorbance at 690 nm as background.

MDBK cells = assay: MTT compound toxicity assay on MDBK cells; type: cell-based, Bovine; conditions: 72 hours; for CC50: BVDV (MDBK), concentration reducing MTT values (570 nm) by 50% relative to DMSO; for toxicity in MDBK cells (in words): MTT, FIG. 4B
Procedure: as §2, §1

[1] = MTT compound toxicity assay on MDBK cells; type: cell-based, Bovine; conditions: bovine
Procedure: as §2, §1

MHBs = MHBs expressed transiently in cells; read-out: IC50, reduction of secretion of MHBs; cited from earlier work
[2] = MTT compound toxicity assay on BHK cells; type: cell-based; conditions: hamster; WNV (BHK); MTT, 50% reduction relative to DMSO
Procedure: as §2

[3] = BVDV (MDBK), concentration reducing plaque number by 50% relative to DMSO, read-out: IC50
[4] = WNV (BHK), plaque number reduced by 50% relative to DMSO, 48 hours
[5] = MDBK cells, MTT, text to FIG. 2B / 4B
[6] = DV (BHK), serotype 2, 72 hrs, read-out: IC50
[7] = BHK cells, moi 0.05, FIG. 3B / 4D
[8] = read-out: concentration inhibiting 50% of the WNV progeny produced, text to FIG. 3B, BHK cells, moi 0.05
[9] = Dengue virus, BHK, 72 h, read-out: IC50 against DV

OC[C@@H]1[C@@H](O)[C@H](O)[C@@H](O)CN1CCCCCC1CCCCC1 [OSL-1, N-pentylcyclohexyl-DNJ]
inhibition of secretion of viral glycoproteins MHBs and LHBs (in words) (HBV): lacked antiviral activity in this assay

Nc1ccn([C@@H]2CS[C@H](CO)O2)c(=O)n1 [Compound 3TC, reference compound]
reduction of MHBs and LHBs in culture medium (in words) (HBV; 3TC 1 ug/ml, FIG. 6B): little effect

CCCCCCCCCN1C[C@H](O)[C@@H](O)[C@H](O)[C@H]1CO [NNDNJ, N-nonyl-DNJ, reference compound]
SI (Selective Index, CC50/IC50) (DV serotype 2; DV (BHK)): 20-100
IC50 (DV serotype 2; text to FIG. 5A, BHK cells, DV serotype 2, 72 hours, read-out: IC50 against DV): 1 µM
SI (Selective Index, CC50/IC50) (BVDV; BVDV (MDBK)): >50
IC50 (BVDV; [3]): < 3 µM
SI (Selective Index, CC50/IC50) (WNV; WNV (BHK)): 5-25
IC50 (WNV; [4]): 4 µM
CC50 (BHK cells): 20 to 100 µM
CC50 (MDBK cells): 150 µM

OC[C@@H]1[C@@H](O)[C@H](O)[C@@H](O)CN1CCCCCCC1(O)CCCCC1 [OSL-3, N-hexyl(1-hydroxycyclohexyl)-1,5-dideoxy-1,5-imino-D-glucitol]
CC50 at 72 h [1, 5]: > 300 µM

OC[C@@H]1[C@@H](O)[C@H](O)[C@@H](O)CN1CCCCC1(O)CCCCC1 [OSL-12-31, N-butyl(1-hydroxycyclohexyl)-1,5-dideoxy-1,5-imino-D-glucitol]
toxicity in MDBK cells (in words) (MDBK cells): less toxic in MDBK cultures than SP169
CC50 at 72 h [1, 5]: > 300 µM

OC[C@@H]1[C@@H](O)[C@H](O)[C@@H](O)CN1CCCCC1CCCCC1 [SP169, N-butylcyclohexyl-DNJ]
SI (Selective Index, CC50/IC50) (DV serotype 2; DV (BHK)): >66
IC50 (DV serotype 2; [6]): 1.5 µM
inhibition of secretion of viral glycoproteins MHBs and LHBs (in words) (HBV): unable to inhibit secretion of viral glycoproteins
IC50 (MHBs): ≤ 35 µM
SI (Selective Index, CC50/IC50) (BVDV; BVDV (MDBK)): >100
IC50 (BVDV; tissue culture, data not shown, read-out: concentration inhibiting 50% of the yield of BVDV): 3 µM
antiviral activity against WNV (in words) (WNV; [7]): comparable to NNDNJ in activity
SI (Selective Index, CC50/IC50) (WNV; WNV (BHK)): >40
IC50 (WNV; [4]): 2.5 µM
IC50 (WNV; [8]): 5 µM
concentration without any detectable cell toxicity (highest concentration tested) (BHK cells): 100 µM
CC50 (BHK cells): > 100 µM
CC50 (MDBK cells): 300 µM

O[C@H]1[C@H](O)[C@@H](O)CN2CC[C@H](O)[C@H]12 [CAST, Castanospermine, reference compound]
IC50 (DV serotype 2; Dengue virus, BHK, 72 h): 6 µM
IC50 (DV serotype 2; [9]): 6 µM
selectivity ratio at 72 h (DV serotype 2; DV (BHK)): > 17
IC50 (WNV; West Nile virus, BHK, 48 h): > 20 µM
selectivity ratio at 48 h (WNV): 5
antiviral activity against WNV (in words) (WNV; highest concentration tested (20 uM)): no significant activity
CC50 at 72 h [2]: > 100 µM

OC[C@@H]1[C@@H](O)[C@H](O)[C@@H](O)CN1CCCCCC1(O)CCCCC1 [OSL-95II, N-pentyl(1-hydroxycyclohexyl)-1,5-dideoxy-1,5-imino-D-glucitol]
IC50 (DV serotype 2; Dengue virus, BHK, 72 h): 2 µM
IC50 (DV serotype 2; [9]): 1 to 2 µM
selectivity ratio at 72 h (DV serotype 2; DV (BHK)): > 50
IC50 (BVDV; Bovine viral diarrhea virus isolates and strains, MDBK): 3 µM
selectivity ratio at 20 h (BVDV; bovine, BVDV (MDBK), read-out: SI (Selective Index, CC50/IC50)): > 166
IC50 (WNV; West Nile virus, BHK, 48 h): 4.5 µM
selectivity ratio at 48 h (WNV): > 9
CC50 at 72 h [2]: > 100 µM
toxicity in MDBK cells (in words) (MDBK cells): much less toxic than N-pentylcyclohexyl-DNJ (OSL-1); also recorded: significantly less cytotoxic against MDBK cells
CC50 at 72 h ([1]; BVDV (MDBK), concentration reducing MTT values (570 nm) by 50% relative to DMSO): > 500 µM

OC[C@@H]1[C@@H](O)[C@H](O)[C@@H](O)CN1CCCC1CCCCC1 [SP173, N-propylcyclohexyl-DNJ]
SI (Selective Index, CC50/IC50) (DV serotype 2; DV (BHK)): >33
IC50 (DV serotype 2; [6]): 3 µM
SI (Selective Index, CC50/IC50) (BVDV; BVDV (MDBK)): >30
IC50 (BVDV; [3]): 5 µM
antiviral activity against WNV (in words) (WNV; [7]): comparable to NNDNJ in activity
SI (Selective Index, CC50/IC50) (WNV; WNV (BHK)): >100
IC50 (WNV; [4]): 1 µM
IC50 (WNV; [8]): 5 µM
concentration without any detectable cell toxicity (highest concentration tested) (BHK cells): 100 µM
CC50 (BHK cells): > 100 µM
CC50 (MDBK cells): > 150 µM
